# Experimental data reported in patent US6110962A, “11-aryl-benzo[B]naphtho[2,3-D]furans and 11-aryl-benzo[B]naphtho[2,3-D]thiophenes useful in the treatment of insulin resistance and hyperglycemia” (American Home Products Corporation, priority 1999, dated 2000).
# pIC50: −log10 of the molar value. Counter-ions that a name gives are not always drawn. Like-named read-outs stand apart in the source and are kept apart here.
# What was measured:
# Human recombinant PTP1B = biological target: T1, Human recombinant PTP1B (Homo sapiens, UniProt P18031); assay type: biochemical
# T1 construct: made in house
# T1 sequence (P18031 1-435): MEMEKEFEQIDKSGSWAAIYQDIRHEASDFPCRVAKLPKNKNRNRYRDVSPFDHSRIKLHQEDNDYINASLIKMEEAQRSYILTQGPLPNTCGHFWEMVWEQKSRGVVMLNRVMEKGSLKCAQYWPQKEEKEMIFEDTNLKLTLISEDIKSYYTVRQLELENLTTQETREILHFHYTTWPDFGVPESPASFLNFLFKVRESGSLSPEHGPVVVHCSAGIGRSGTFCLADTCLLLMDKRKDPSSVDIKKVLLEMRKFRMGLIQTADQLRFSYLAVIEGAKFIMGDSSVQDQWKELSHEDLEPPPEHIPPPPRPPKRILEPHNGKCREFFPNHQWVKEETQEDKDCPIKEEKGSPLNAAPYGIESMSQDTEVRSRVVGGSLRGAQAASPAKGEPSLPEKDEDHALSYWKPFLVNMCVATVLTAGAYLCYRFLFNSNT
# [1] = system: rat hepatic microsomal PTPases; details: PTPase activity, compound at 50 μM
Compound,pIC50 (Human recombinant PTP1B; read-out: IC50),% Change from Control [1],pIC50 (Human recombinant PTP1B)
"O=C(O)C(Cc1cccnc1)Oc1c(Br)cc(-c2c3ccccc3c(Br)c3sc4ccccc4c23)cc1Br (centres unmarked) [Example 137, 2-[2,6-Dibromo-4-(6-bromo-benzo[b]naphtho[2,3-d]thiophen-11-yl)-phenoxy]-3-pyridin-3-yl-propionic acid]",6.47,-64.92%,–
"Oc1c(Br)cc(-c2c3ccccc3c(Sc3ccccc3)c3sc4ccccc4c23)cc1Br [Example 64, 2,6-Dibromo-4-(6-phenylsulfanyl-benzo[b]naphtho[2,3-d]thiophen-11-yl)-pheno]",6.46,-15.90%,–
N#CCCNC(=O)[C@@H](Cc1ccccc1)Oc1c(Br)cc(-c2c3ccccc3c(Br)c3sc4ccccc4c23)cc1Br [Example 168],6.00,-17.85%,–
"O=C(O)[C@@H](Cc1c[nH]cn1)Oc1c(Br)cc(-c2c3ccccc3c(Br)c3sc4ccccc4c23)cc1Br [Example 120, (R)-2-[2,6-Dibromo-4-(6-bromo-benzo[b]naphtho[2,3-d]thiophen-11-yl)-phenoxy]-3-(1 H-imidazol-4-yl)-propionic acid, hydrochloride]",6.27,-17.35%,–
"O=C(O)C(Cc1ccc2ccccc2c1)Oc1c(Br)cc(-c2c3ccccc3c(Br)c3sc4ccccc4c23)cc1Br (centres unmarked) [Example 156, 2-[2,6-Dibromo-4-(6-bromo-benzo[b]naphtho[2,3-d]thiophen-11-yl)-phenoxy]-3-naphthalen-2yl-propionic acid]",7.59,-71.12%,–
O=C(O)[C@H](CCc1ccccc1)Oc1c(Br)cc(-c2c3ccccc3c(Br)c3sc4ccccc4c23)cc1Br [Example 118],7.51,-82.00%,–
"COc1c(Br)cc(-c2c3ccccc3c(Br)c3sc4ccccc4c23)cc1O[C@H](Cc1ccccc1)C(=O)O [Example 196, (R)-2-[3-Bromo-5-(6-bromo-benzo[b]naphtho[2,3-d]thiophen-11-yl)-2-methoxy-phenoxy]-3-phenyl-propionic acid]",6.76,-80.08%,–
"CC(C)c1cc(-c2c3ccccc3c(Br)c3sc4ccccc4c23)cc(C(C)C)c1O [Example 40, 4-(6-Bromo-benzo[b]naphtho[2,3-d]thiophen-11-yl)-2,6-diisopropyl-phenol]",5.96,-1.40%,–
"O=C(O)[C@@H](CCN1Cc2ccccc2C1=O)Oc1c(Br)cc(-c2c3ccccc3c(Br)c3sc4ccccc4c23)cc1Br [Example 124, (2R)-2-[2,6-Dibromo-4-(6-bromo-benzo[b]naphtho[2,3-d]thiophen-11-yl)-phenoxy]-4-(1-oxo-1,3-dihydro-isoindol-2-yl)-butyric acid]",7.07,-70.01%,–
"O=P(O)(O)Oc1c(Br)cc(-c2c3ccccc3c(Br)c3sc4ccccc4c23)cc1Br [Example 177, Phosphoric acid Mono-[2,6-dibromo-4-(6-bromo-benzo[b]naphtho[2,3-d]thiophen-11-yl)-phenyl]ester]",–,-69.35%,5.97
"O=C(O)[C@H](Cc1ccccc1)Oc1ccc(-c2c3ccccc3c(Br)c3sc4ccccc4c23)cc1 [Example 114, (S)-2-[4-(6-bromo-benzo[b]naphtho[2,3-d]thiophen-11-yl)-phenoxy]-3-phenyl-propionic acid]",6.23,-68.03%,–
"O=C(O)C[C@@H](Oc1c(Br)cc(-c2c3ccccc3c(Br)c3sc4ccccc4c23)cc1Br)C(=O)O [Example 152, (R)-2-[2,6-Dibromo-4-(6-bromo-benzo[b]naphtho[2,3-d]thiophen-11-yl)-phenoxy]-succinic acid]",6.00,-95.22%,–
Cc1c2ccccc2c(-c2cc(Br)c(O[C@H](Cc3ccccc3)C(=O)O)c(Br)c2)c2c1sc1ccccc12 [Example 141],6.90,-76.58%,–
"CN(C)CCSc1c2ccccc2c(-c2cc(Br)c(O[C@H](Cc3ccccc3)C(=O)O)c(Br)c2)c2c1sc1ccccc12 [Example 133, (R)-2-{2,6-Dibromo-4-[6-(2-dimethylamino-ethylsulfanyl)-benzo[b]naphtho[2,3-d]thiophen-11-yl]-phenoxy}-3-phenyl-propionic acid]",6.30,-27.89%,–
"Oc1cc(Br)c(-c2c3ccccc3c(Br)c3sc4ccccc4c23)cc1O [Example 71, 4-Bromo-5-(6-bromo-benzo[b]naphtho[2,3-d]thiophen-11-yl)-benzene-1,2-diol]",7.10,-35.74%,–
"Oc1c(Br)cc(-c2c3ccccc3c(Br)c3oc4ccccc4c23)cc1Br [Example 210, 2,6-Dibromo-4-(6-bromo-benzo[b]naphtho[2,3-d]furan-11ly)-phenol]",5.97,-51.55%,–
"Oc1c(Br)cc(-c2c3ccccc3c(Cl)c3sc4ccccc4c23)cc1Br [Example 60, 2,6-Dibromo-4-(6-chloro-benzo[b]naphtho[2,3-d]thiophen-11-yl)-phenol]",6.89,-25.07%,–
"Cc1c2ccccc2c(-c2cc(Br)c(O)c(Br)c2)c2c1sc1ccccc12 [Example 62, 2,6-Dibromo-4-(6-methyl-benzo[b]naphtho[2,3-d]thiophen-11-yl)-phenol]",6.18,-40.14%,–
NC(=O)[C@@H](Cc1ccccc1)Oc1c(Br)cc(-c2c3ccccc3c(Br)c3sc4ccccc4c23)cc1Br [Example 166],6.25,-26.86%,–
"N#C[C@@H](Cc1ccccc1)Oc1c(Br)cc(-c2c3ccccc3c(Br)c3sc4ccccc4c23)cc1Br [Example 170, (R)-2-[2,6-Dibromo-4-(6-bromo-benzo[b]naphtho[2,3-d]thiophen-11-yl)-phenoxy]-3-phenyl-propionitrile]",6.22,-18.79%,–
COc1c2ccccc2c(-c2cc(Br)c(O)c(Br)c2)c2c1sc1ccccc12 [Example 63],6.04,-47.53%,–

# Now from value to compound, other results behind:
pIC50 (Human recombinant PTP1B; read-out: IC50),% Change from Control [1],Compound,pIC50 (Human recombinant PTP1B)
5.82,-21.28%,"Oc1cccc(-c2c3ccccc3c(Br)c3sc4ccccc4c23)c1 [Example 42, 3-(6-Bromo-benzo[b]naphtho[2,3-d]thiophen-11-yl)-phenol]",–
5.99,-26.32%,"Oc1cc(-c2c3ccccc3c(Br)c3sc4ccccc4c23)ccc1Br [Example 68, 2-Bromo-5-(6-bromo-benzo[b]naphtho[2,3-d]thiophen-11-yl)-phenol]",–
5.97,-39.32%,"Oc1ccc(-c2c3ccccc3c(Br)c3sc4ccccc4c23)cc1 [Example 41, 4-(6-Bromo-benzo[b]naphtho[2,3-d]thiophen-11-yl)-phenol]",–
6.51,-49.27%,"C[C@@H](Oc1c(I)cc(-c2c3ccccc3cc3sc4ccccc4c23)cc1I)C(=O)O [Example 132, (R)-2-(4-Benzo[b]naphtho[2,3-d]thiophen-11-yl-2,6-diiodo-phenoxy)-propionicacid]",–
5.93,-3.02%,"CC(=O)Oc1ccc(-c2c3ccccc3c(Br)c3sc4ccccc4c23)cc1 [Example 37, 4-(6-Bromo-benzo[b]naphtho[2,3-d]thiophen-11-yl-phenol)acetate(ester)]",–
6.84,-60.67%,"O=P(O)(O)COc1c(Br)cc(-c2c3ccccc3c(Br)c3sc4ccccc4c23)cc1Br [Example 162, [2,6-Dibromo-4-(6-bromo-benzo[b]naphtho[2,3-d]thiophen-11-yl)-phenoxymethyl]-phosphonic acid]",–
5.93,-76.98%,"C[C@H](Oc1cc(-c2c3ccccc3c(Br)c3sc4ccccc4c23)ccc1Br)C(=O)O [Example 143, (S)-2-[2-Bromo-5-(6-bromo-benzo[b]naphtho[2,3-d]thiophen-11-yl)-phenoxyl]-propionic acid]",–
5.89,-97.10%,"O=C(O)COc1cc(-c2c3ccccc3c(Br)c3sc4ccccc4c23)ccc1Br [Example 91, [2-Bromo-5-(6-bromo-benzo[b]naphtho[2,3-d]thiophen-11-yl)-phenoxyl]-acetic acid]",–
6.72,-14.62%,"Oc1ccc(-c2c3ccccc3c(Br)c3sc4ccccc4c23)cc1O [Example 43, 4-(6-bromo-benzo[b]naphtho[2,3-d]thiophen-11-yl)-benzene-1,2-diol]",–
6.19,-98.16%,"O=C(O)COc1cc(-c2c3ccccc3c(Br)c3sc4ccccc4c23)c(Br)cc1Br [Example 92, [2,4-Dibromo-5-(6-bromo-benzo[b]naphtho[2.3-d]thiophen-1-yl)-phenoxyl]-acetic acid]",–
6.26,-15.22%,"Oc1ccc(-c2c3ccccc3cc3sc4ccccc4c23)cc1O [Example 18, 4-(Benzo[b]naphtho[2,3-d]thiophen-11-yl)-benzene-1,2-diol]",–
5.91,-82.62%,O=C(O)[C@@H](CCN1C(=O)c2ccccc2C1=O)Oc1ccc(-c2c3ccccc3cc3sc4ccccc4c23)cc1 [Example 148],–
5.70,-39.80%,"N#Cc1cc(-c2c3ccccc3cc3sc4ccccc4c23)ccc1OCC(=O)O [Example 82, [(4-benzo[b]naphtho[2,3-d]thiophen-11-yl)-2-cyano-phenoxy]-acetic acid]",–
